Reference: US20050187196A1, “Treatment of attention disorders” (Saegis Pharmaceuticals, Inc., priority 2004, published 2005)

How the values were obtained:
[1] = test system: striatal dopamine release; settings: administration in the substantia nigra pars reticulata (SNr); cited from earlier work
[2] = test system: dopamine (DA) neurons in the ventral tegmental area (VTA); settings: systemic administration; cited from earlier work
[3] = test system: patients diagnosed with adult ADHD; settings: cited from earlier work
[4] = test system: coloboma mice (Cm/+); settings: open field test; d-amphetamine at low doses; cited from earlier work
[5] = test system: wildtype mice; settings: d-amphetamine at the same dose as in coloboma mice; cited from earlier work
[6] = test system: coloboma mutant mice (Cm/+); assay: Open field test, coloboma mutant mice; assay type: in vivo, mouse; settings: for frequency of zone crossings / total distance traveled / locomotor activity: final 30 min
Source text: (§1) Male and female mice heterozygous for the coloboma spontaneous mutation (C3H/HeSnJ-Cm/J) and wild type (C3H/HeSNJ) mice from Jackson Laboratories (Bar Harbor, Me.) were used in this study. Upon receipt, mice were assigned unique identification numbers (tail marked) and were housed in polycarbonate cages with filter tops. All mice were acclimated to the colony room for at least two weeks prior to testing. During the period of acclimation, mice were examined on a regular basis, handled, and weighed to assure adequate health and suitability. Mice were maintained on a 12/12 light/dark cycle. Chow and water were provided ad libitum for the duration of the study. In each test, animals were randomly assigned across treatment groups and balanced by age and by gender. Animals were not disturbed between test days.
(§2) The open field test (OF) is used to assess both anxiety-like behavior and motor activity. The open field chambers are Plexiglas square chambers (27.3×27.3×20.3 cm; Med Associates Inc., St Albans, Vt.) surrounded by infrared photobeam sources (16×16×16). The enclosure was configured to split the open field into a center and periphery zone and the photocell beams were set to measure activity in the center and in the periphery of the OF chambers. Animals having higher levels of anxiety or lower levels of activity tend to stay in the corners of the OF enclosures. On the other hand, mice that have high levels of activity and low levels of anxiety tend to spend more time in the center of the enclosure. Distance traveled is measured from consecutive beam breaks. Measures of peripheral or central distance covered during locomotion were used as an index of activity.
(§3) ABPA (0.3, 3 and 30 mg/kg) and atomoxetine (0.1 mg/kg) were dissolved in saline and administered i.p. at the injection volume of 10 ml/kg. Mice were pretreated with saline, ABPA, or atomoxetine for 30 min, after which their behavior was recorded in the OF chambers for a 60-min test session. At the end of each open field test session the OF chambers were thoroughly cleaned with Clorox wipes. Mice were returned to their home cage after testing and then to the colony room. Mice were retested every week. The washout period between tests ranged from 3-7 days. Data were analyzed by analysis of variance (ANOVA), followed by Fisher PLSD post-hoc analysis when appropriate. An effect was considered significant if p<0.05. Outliers that fell above and below two standard deviations away from the mean were removed from the final analysis.
(§4) Since the effects of all drugs reached a stable response by 20-30 min following the start of the experiment, the data was analyzed in 2 time periods: 1) total 60 min test session and 2) the last 30 min of the test session. The quantified data over the final 30 min time period are presented. Repeated measure ANOVA found a significant genotype and drug interaction over both time periods. As measured by total distance traveled, the coloboma mice had roughly 6- to 10-fold higher saline-induced activity compared to the wildtype mice (11,246±3213 centimeters vs. 1035±252 centimeters, FIGS. 3A and 3B).

[7] = test system: patients with mild cognitive impairment (MCI); assay: Five Choice Reaction Time test (CANTAB), clinical trial; assay type: in vivo, human; settings: 600 mg tid
Protocol: (§5) A clinical trial was initiated to determine the effect of the GABAB receptor antagonist, ABPA, on specific tests of cognition in non-demented older individuals with diminished memory function who met prospective criteria for mild cognitive impairment (MCI). Patients aged 60-85 with MCI enrolled in this double-blind, randomized trial. Patients were randomized to ABPA (600 mg tid) or placebo for 8 weeks. Verbal, paper and computer tests of memory and cognition were made by trained assessors at baseline (before administration of ABPA or placebo) and after 2, 5, and 8 weeks of treatment. Among these were selected tests from the Cambridge Neuropsychological Test Automated Battery (CANTAB), a computerized battery of tests for neuropsychological evaluation (Robbins et al., 1994, “Cambridge Neuropsychological Test Automated Battery (CANTAB): A factor analytic study of a large sample of normal elderly volunteers,” Dementia 5:266-281). Tests assessing memory, attention and psychomotor speed were administered to the patient by a neuropsychologist or equivalent via a computer with a touch screen, thus testing the individual's cognitive performance rather than ability to use a computer. CANTAB tests have been proven to be highly sensitive and specific in differentiating patients with a number of neurological conditions from each other and from normal controls.
110 patients were randomized; 75 were administered ABPA and 35 were administered placebo (56% men; mean age: 74 years).
The Five Choice Reaction Time test measures the speed of response to the appearance of a visual stimulus. Patients rested their hand on a press-pad placed on the desk directly in front of the computer screen, holding down the press-pad until a brief yellow flash appeared in 1 of the 5 circles located at various positions around the screen. […] The computer recorded 2 measures of response speed: reaction time, which was the time taken to lift the hand from the press-pad, and movement time, which was the latency from press-pad release to the time that the screen was touched. […]

[8] = test system: patients with mild cognitive impairment (MCI); assay: Rapid Visual Information Processing (RVIP) test (CANTAB), clinical trial; assay type: in vivo, human; settings: 600 mg tid
Protocol: A clinical trial was initiated to determine the effect of the GABAB receptor antagonist, ABPA, on specific tests of cognition in non-demented older individuals with diminished memory function who met prospective criteria for mild cognitive impairment (MCI). Patients aged 60-85 with MCI enrolled in this double-blind, randomized trial. Patients were randomized to ABPA (600 mg tid) or placebo for 8 weeks. Verbal, paper and computer tests of memory and cognition were made by trained assessors at baseline (before administration of ABPA or placebo) and after 2, 5, and 8 weeks of treatment. Among these were selected tests from the Cambridge Neuropsychological Test Automated Battery (CANTAB), a computerized battery of tests for neuropsychological evaluation (Robbins et al., 1994, “Cambridge Neuropsychological Test Automated Battery (CANTAB): A factor analytic study of a large sample of normal elderly volunteers,” Dementia 5:266-281). […]
The Rapid Visual Information Processing (RVIP) test is a test of sustained attention with a small working memory component. […] Responses were recorded with a button press. Reaction time, or mean hit latency, for all correct responses was recorded, as were additional signal detection measures (e.g., total hits, total misses and total false alarms). […]

[9] = test system: patients with MCI; assay: CANTAB tests of psychomotor speed, clinical trials; assay type: in vivo, human
Protocol: as §5

[10] = test system: wildtype mice (C3H/HeSNJ); assay: Open field test, wildtype mice; assay type: in vivo, mouse; settings: for locomotor activity of wildtype controls: final 30 min
Source text: as §1, §2
as §3, with “The washout period between tests ranged from 3-7 days.” left out, “An effect was considered significant if p<0.05. Outliers that fell above and below two standard deviations away from the mean were removed from the final analysis.” left out
as §4, with “Repeated measure ANOVA found a significant genotype and drug interaction over both time periods.” left out

[11] = test system: GABAC receptor; settings: reported in U.S. Pat. No. 6,632,806; cited from earlier work
[12] = test system: coloboma mutant mice (Cm/+); assay: Open field test, coloboma mutant mice; assay type: in vivo, mouse; settings: parallel experiments

NCCCCC(=O)O [5-AVA]
dopamine release in the striatum [1]: increase dopamine release in the striatum

CCOC(OCC)P(=O)(O)CCCN [CGP 35348]
burst firing of VTA dopamine neurons [2]: long-lasting increase in burst firing

COC(=O)C(c1ccccc1)C1CCCCN1 (stereo not drawn) [methylphenidate]
performance in the RVIP test [3]: improve performance in the RVIP test
activity levels / hyperactivity of coloboma mice [4]: failed to normalize the hyperactivity
activity levels of wildtype mice [5]: increasing locomotor activity

CNCC[C@@H](Oc1ccccc1C)c1ccccc1 [atomoxetine]
frequency of zone crossings ([6]; 0.1 mg/kg i.p., p=0.06): strong trend to decreasing the zone crossings
total distance traveled ([6]; 0.1 mg/kg i.p., final 30 min of 60-min session, vs saline-treated Cm mutants, p=0.03): significantly decreased total distance traveled
activity levels / hyperactivity of coloboma mice [4]: reduces hyperactivity
activity levels of wildtype mice [5]: without affecting activity levels

CCCCP(=O)(O)CCCN [ABPA, 3-aminopropyl-(n-butyl)-phosphinic acid]
mean reaction time, change compared to baseline ([7]; 8 weeks, p=0.002 vs placebo (+9.4)): −19.7 milliseconds
reaction time vs baseline ([7]; Week 2, p=0.074 vs placebo): Decreased reaction time
reaction time vs baseline ([7]; Week 5, p=0.070 vs placebo): Decreased reaction time
mean hit latency, mean change from Baseline ([8]; Week 5, p=0.03 vs placebo (+15.0)): -37.3 ms
mean hit latency, mean change from Baseline ([8]; Week 8, p=0.02 vs placebo (−5.9)): -61.6 ms
psychomotor speed [9]: significant improvements in psychomotor speed
frequency of zone crossings ([6]; 0.3 mg/kg i.p., p=0.04, to within range of saline-treated wildtype): significant decrease in the frequency of zone crossings
total distance traveled / locomotor activity ([6]; 0.3 mg/kg i.p., p=0.07): strong trend to decreasing the activity
total distance traveled / locomotor activity ([6]; 3 mg/kg i.p., p=0.03): significantly decreased locomotor activity levels
frequency of zone crossings ([6]; 3 mg/kg i.p., p=0.06): strong trend to decreasing the zone crossings
total distance traveled / locomotor activity ([6]; 30 mg/kg i.p., p=0.03): significantly decreased locomotor activity levels
frequency of zone crossings ([6]; 30 mg/kg i.p., p=0.04, to within range of saline-treated wildtype): significant decrease in the frequency of zone crossings
locomotor activity of wildtype controls ([10]; 3 mg/kg i.p.): no effect on the activity of wildtype controls
locomotor activity of wildtype controls ([10]; 30 mg/kg i.p.): no effect on the activity of wildtype controls
GABAC receptor antagonism [11]: antagonize

C[C@H](N)Cc1ccccc1 [d-amphetamine, dextro-amphetamine]
activity in control (wildtype) mice ([10]; parallel experiments): did increase activity
rearing frequency in control (wildtype) mice ([10]; parallel experiments): no effect on rearing frequency
activity in coloboma mice ([12]; 0.5 mg/kg): did not reduce activity
activity in coloboma mice ([12]; 1 mg/kg): did not reduce activity
activity in coloboma mice ([12]; 4 mg/kg): did not reduce activity
frequency of rearing ([12]; 4 mg/kg): did reduce the frequency of rearing
activity levels / hyperactivity of coloboma mice [4]: reduced
activity levels of wildtype mice [5]: profound increases in activity

NCC(CC(=O)O)c1ccc(Cl)cc1 (stereo not drawn) [baclofen]
dopamine release in the striatum [1]: decrease in striatal dopamine
